[ ]: non-standard residue; d: D form. The star is where a group is joined. 2Nal = N[C@@H](Cc1ccc2ccccc2c1)C(=O)O; Decanoyl = CCCCCCCCCC(=O)*; Orn = NCCC[C@H](N)C(=O)O; Dap = NC[C@H](N)C(=O)O; Hexanoyl = CCCCCC(=O)*
Legend:
HeLa cells [1] = assay: Cytosolic entry efficiency of NF-labelled peptides by flow cytometry; format: cell-based; conditions: for Cellular Entry Efficiency In 10% FBS: 2 h, relative to CPP12 (100%); for CPP activity compared with CPP1-4 (in words): variant of CPP1-4; for sensitivity to serum concentration: 10% vs 1% FBS, compared with CPP9 or CPP12
Procedure: All of the peptides were labeled with naphthofluorescein (NF) at the Gln side chain through a long, flexible linker, miniPEG-Lys. HeLa cells were treated with 5 μM peptide for 2 h in the presence of 10% FBS and the cytosolic entry of the peptides was quantitated by flow cytometry analysis.
To determine cellular uptake efficiency of the CPPs disclosed herein, HeLa cells were cultured in 12-well plates (1.5×10^5 cells per well) overnight. The cells were incubated for 2 h with […] naphthofluorescein (NF)-labelled peptide in cellular media. At the end of incubation, the cells were washed with DPBS twice, detached from the plate with 0.25% trypsin, diluted into clear DMEM, pelleted at 250 g for 5 min, washed twice with DPBS, resuspended in DPBS, and analyzed on a BD FACS LSR II flow cytometer. For NF-labelled peptides, a 633-nm laser was used for excitation and the fluorescence emission was analyzed in the APC channel. Absolute cellular uptake efficiency was determined by comparing the concentration (via fluorescence intensity) of the CPP in the cytosol to the concentration in the extracellular medium. Relative cellular uptake efficiency was determined by comparing the cytosolic concentration of the CPP to that cytosolic concentration of the control CPP cyclo(FΦRRRRQ).

HeLa cells [2] = assay: as above; format: cell-based; conditions: for Cellular Entry Efficiency In 1% FBS: relative to CPP12 (100%); for cytosolic entry efficiency: reduced serum concentration (1% FBS), CPP12 most active
[3] = Table 4, 5 μM NF-labelled peptide, 10% FBS
[4] = Table 7, 5 μM NF-labelled peptide, 10% FBS

Substance	Cellular Entry Efficiency In 10% FBS (HeLa cells [1]; [3])	Cellular Entry Efficiency In 10% FBS (HeLa cells [1]; [4])	Cellular Entry Efficiency In 1% FBS (HeLa cells [2]; Table 4, NF-labelled peptide)	Cellular Entry Efficiency In 1% FBS (HeLa cells [2]; Table 7, NF-labelled peptide)	CPP activity compared with CPP1-4 (in words) (HeLa cells [1])	cytosolic entry efficiency (HeLa cells [2])	activity, fold higher than CPP1 (HeLa cells [1]; 10% FBS, versus CPP1)	sensitivity to serum concentration (HeLa cells [1])
cyclo(Dap^HexanRRRRQ) (cyclo([Dap](Hexanoyl)RRRRQ); SMILES CCCCCC(=O)NC[C@@H]1NC(=O)[C@H](CCC(N)=O)NC(=O)[C@H](CCCNC(=N)N)NC(=O)[C@H](CCCNC(=N)N)NC(=O)[C@H](CCCNC(=N)N)NC(=O)[C@H](CCCNC(=N)N)NC1=O) [CPP1-2]	2.9 ± 0.2%	2.9 ± 0.2%	–	–	–	–	–	–
cyclo(Dap^DecarRrRQ) [CPP1-11]	20 ± 6%	20 ± 6%	29%	29%	substantially decreased the CPP activity	–	–	–
cyclo(Dap^DecaRRRRQ) (cyclo([Dap](Decanoyl)RRRRQ); SMILES CCCCCCCCCC(=O)NC[C@@H]1NC(=O)[C@H](CCC(N)=O)NC(=O)[C@H](CCCNC(=N)N)NC(=O)[C@H](CCCNC(=N)N)NC(=O)[C@H](CCCNC(=N)N)NC(=O)[C@H](CCCNC(=N)N)NC1=O) [CPP1-4]	57 ± 19%	57 ± 19%	–	–	–	44%	2.5 fold	lower sensitivity to serum concentration
cyclo(Dap^1-PyrenRRRRQ) (cyclo([Dap](1‑pyrenoyl)RRRRQ)) [CPP1-5]	10 ± 20%	10 ± 20%	–	–	–	–	–	–
cyclo(Dap^DecaRRRQ) (cyclo([Dap](Decanoyl)RRRQ); SMILES CCCCCCCCCC(=O)NC[C@@H]1NC(=O)[C@H](CCC(N)=O)NC(=O)[C@H](CCCNC(=N)N)NC(=O)[C@H](CCCNC(=N)N)NC(=O)[C@H](CCCNC(=N)N)NC1=O) [CPP1-16]	3.0 ± 0.1%	3.0 ± 0.1%	25%	25%	greatly decreased the CPP activity	–	–	–
cyclo(Dap^DecaARRRQ) (cyclo([Dap](Decanoyl)ARRRQ); SMILES CCCCCCCCCC(=O)NC[C@@H]1NC(=O)[C@H](CCC(N)=O)NC(=O)[C@H](CCCNC(=N)N)NC(=O)[C@H](CCCNC(=N)N)NC(=O)[C@H](CCCNC(=N)N)NC(=O)[C@H](C)NC1=O) [CPP1-12]	26 ± 4%	26 ± 4%	34%	34%	reduced the CPP activity	–	–	–
cyclo(fΦRrRrQ) [CPP9, reference compound]	94 ± 7%	94 ± 7%	32 ± 6%	32 ± 6%	–	32%	–	–
cyclo(Orn^DecaRRRRQ) (cyclo([Orn](Decanoyl)RRRRQ); SMILES CCCCCCCCCC(=O)NCCC[C@@H]1NC(=O)[C@H](CCC(N)=O)NC(=O)[C@H](CCCNC(=N)N)NC(=O)[C@H](CCCNC(=N)N)NC(=O)[C@H](CCCNC(=N)N)NC(=O)[C@H](CCCNC(=N)N)NC1=O) [CPP1-17]	115 ± 32%	115 ± 32%	58 ± 22%	58 ± 22%	slightly increased the CPP activity	58%	–	lower sensitivity to serum concentration
cyclo(Dap^DecaRRRRRQ) (cyclo([Dap](Decanoyl)RRRRRQ); SMILES CCCCCCCCCC(=O)NC[C@@H]1NC(=O)[C@H](CCC(N)=O)NC(=O)[C@H](CCCNC(=N)N)NC(=O)[C@H](CCCNC(=N)N)NC(=O)[C@H](CCCNC(=N)N)NC(=O)[C@H](CCCNC(=N)N)NC(=O)[C@H](CCCNC(=N)N)NC1=O) [CPP1-14]	12 ± 1%	12 ± 1%	21%	21%	greatly decreased the CPP activity	–	–	–
cyclo(Dap^1-PyrenebRRRRQ) (cyclo([Dap](1‑pyrenylbutanoyl)RRRRQ)) [CPP1-8]	24 ± 1%	24 ± 1%	–	–	–	–	–	–
cyclo(FΦRRRRQ) (cyclo(F[2Nal]RRRRQ); SMILES N=C(N)NCCC[C@@H]1NC(=O)[C@H](CCCNC(=N)N)NC(=O)[C@H](CCCNC(=N)N)NC(=O)[C@H](Cc2ccc3ccccc3c2)NC(=O)[C@H](Cc2ccccc2)NC(=O)[C@H](CCC(N)=O)NC(=O)[C@H](CCCNC(=N)N)NC1=O) [CPP1, the first cyclic CPP discovered, reference compound]	21%	21%	–	–	–	–	–	–
cyclo(Dap^DecaRrRrQ) [CPP1-10]	21 ± 9%	21 ± 9%	24%	24%	substantially decreased the CPP activity	–	–	–
